Tested on: CT26.WT
Test: Subcutaneous syngeneic CT26.WT colon carcinoma mouse model, ARI-001 with anti-mCTLA-4 antibody (Example 153)
Format: in vivo
Method: In this example, the in vivo anti-tumor efficacy of ARI-001, an antibody against mouse CTLA-4 (mCTLA-4), and a combination of the two agents was evaluated using the subcutaneous syngeneic CT26.WT (aka CT-26) colon carcinoma mouse model.
CT26.WT cells were obtained from the ATCC and grown in RPMI 1640 medium supplemented with 10% FBS at 37° C. in a 5% CO2 atmosphere. Female Envigo BALB/c mice (BALB/cANNHsd) of 5-6 weeks old were implanted subcutaneously in the right axilla (high) on Day 0 with 5.0×10^5 cells/mouse in 200 μl using a 27-gauge needle and syringe.
ARI-001 powder was dissolved in 100% DMSO to obtain a 106.67 mg/ml dosing formulation with a pH of 7.6. The dosing solution was stored at room temperature and protected from light. The anti-mCTLA-4 9D9 was obtained from BioXcell.
All mice were sorted into study groups based on caliper estimation of tumor burden. Each study group had ten mice. The mice were distributed to ensure that the mean tumor burden for all groups was within 10% of the overall mean tumor burden for the study population. Treatment began on Day 7 at an overall mean tumor burden of 89 mm^3 (range of group means, 87-91 mm^3). All mice were dosed according to individual body weight on the day of treatment (0.2 mL/20 g for anti-mCTLA-4 and vehicle (PBS), 30 μL/20 g for ARI-001 and vehicle (DMSO)). All agents were given to the mice intraperitoneally.
Tumor measurements were recorded three times weekly. Tumor burden (mm^3) was estimated from caliper measurements by the formula for the volume of a prolate ellipsoid assuming unit density as:
Tumor burden(mm^3)=(L×W^2)/2,
The primary endpoints used to evaluate efficacy at the group level were: tumor growth delay, increased time to progression (% ITP), median ΔT/ΔC, complete and partial tumor response, and the number of tumor-free survivors at the end of the study. Tumor growth delay for this experiment was evaluated at 750 mm^3. Time to progression study for this experiment was evaluated at 2,000 mm^3. This is the IACUC required tumor burden limit, and the time to euthanasia can be thought of as a surrogate for lifespan.
In this experiment, median ΔT/ΔC was evaluated when the median control tumor burden reached 1,000 mm^3 (Day 17). A mouse was considered a putative responder if it met at least one of the following criteria: complete regression of the tumor or being at least two standard deviations larger than the median time to progression of the control group. The following are the definitions of the efficacy parameters mentioned above: ΔC and ΔT are individual mouse endpoints that are calculated for each mouse as follows:
Median ΔT/ΔC is a group endpoint. It is calculated for each day of treatment as:
The results are presented as %. When the median ΔT/ΔC is negative (the median treated tumor burden is regressing), the median ΔT/ΔC is not reported and the Median % Regression is reported instead.
Time to Evaluation Size (TES)—TES is an individual mouse endpoint and it is expressed in days from tumor implant. It is the time it takes the tumor burden to reach a specified value, and it can be calculated from any method of evaluating tumor burden (caliper measurements, BLI, anatomical imaging, etc.). It is calculated by log-linear interpolation between the two closest data points that bracket the chosen tumor burden.
Time to Progression (TP)—Time to progression is a surrogate for lifespan, time on study, or lifespan. It is used for studies that involve IACUC mandated euthanasia of animals for excessive tumor burdens (even if the animals otherwise appear normal). The mandated tumor burden limit is tumor model dependent. TP data is analyzed by Kaplan Meier methods just as traditional life span data. The Time to Progression for an individual animal is the number of days between initiation of treatment and the death or required euthanasia of that animal. […]

COC(=O)c1csc(C(=O)c2c[nH]c3ccccc23)n1 [ARI-001]
Incidence of putative responders (CT26.WT, ARI-001 160 mg/kg/inj., 9D9 10 mg/kg/inj.): 70%
Tumor Growth Delay (CT26.WT, ARI-001 160 mg/kg/inj., 9D9 10 mg/kg/inj., intraperitoneally): 2.9 days
Day 17 Median ΔT/ΔC (Day 17, ARI-001 160 mg/kg/inj., 9D9 10 mg/kg/inj., intraperitoneally): 44%
CR (complete response): 0%
MBW Change (mean body weight change during treatment, ARI-001 160 mg/kg/inj., 9D9 10 mg/kg/inj., intraperitoneally): −8.3%
Increase in MTP (median time to progression, 2,000 mm^3, relative to Group 1): 40%
